Measurements reported in patent US6608086B2, “Dihydropyridines and new uses thereof” (Synaptic Pharmaceutical Corporation, priority 1993, dated 2003).
Structures can show the parent of a compound that is named as a salt. Where two headings read alike, the source gives them in different places.

Experiments:
α2B receptor = target: T1, α2B receptor (Homo sapiens, UniProt P18089); assay: Competition binding, [3H]rauwolscine, human α2B receptor; details: for Ki: read-out: pKi alpha-2 2b (converted)
T1 construct: host or cells: LM(tk-) cells, line L-NGC-α2B
T1 sequence (P18089 1-450): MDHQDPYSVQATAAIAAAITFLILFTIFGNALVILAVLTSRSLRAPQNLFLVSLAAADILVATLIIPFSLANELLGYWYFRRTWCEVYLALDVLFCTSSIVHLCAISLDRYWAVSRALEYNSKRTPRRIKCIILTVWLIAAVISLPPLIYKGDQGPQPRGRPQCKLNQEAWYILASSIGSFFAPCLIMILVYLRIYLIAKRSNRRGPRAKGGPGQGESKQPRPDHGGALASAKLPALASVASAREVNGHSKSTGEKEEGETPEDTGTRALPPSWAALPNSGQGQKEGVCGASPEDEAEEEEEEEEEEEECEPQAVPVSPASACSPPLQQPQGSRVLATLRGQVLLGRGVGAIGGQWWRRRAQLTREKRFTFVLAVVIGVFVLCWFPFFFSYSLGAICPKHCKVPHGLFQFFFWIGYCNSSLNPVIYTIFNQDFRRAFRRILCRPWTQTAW
Text: (§1) The protocols for these experiments are given below.
(§2) α2 Human Adrenergic Receptors:
(§3) To determine the potency of […], antagonists at the α2 receptors, LM(tk−) cell lines stably transfected with the genes encoding the α2A, α2B, and α2C receptors were used. The cell line expressing the α2A receptor is designated L-α2A, and was deposited on Nov. […] The cell line expressing the α2B receptor is designated L-NGC-α2B, and was deposited on Oct. […] The cell line expressing the α2C receptor is designated L-α2C, and was deposited on Nov. […] Cell lysates were prepared as described above (see Radioligand Binding Assays), and suspended in 25 mM glycylglycine buffer (pH 7.6 at room temperature). Equilibrium competition binding assay were performed using [3H]rauwolscine (0.5 nM), and nonspecific binding was determined by incubation with 10 μM phentolamine. The bound radioligand was separated by filtration through GF/B filters using a cell harvester.

α2C receptor = target: T2, α2C receptor (Homo sapiens, UniProt P18825); assay: Competition binding, [3H]rauwolscine, human α2C receptor; details: for Ki: read-out: pKi alpha-2 2c (converted)
T2 construct: host or cells: LM(tk-) cells, line L-α2C
T2 sequence (P18825 1-462): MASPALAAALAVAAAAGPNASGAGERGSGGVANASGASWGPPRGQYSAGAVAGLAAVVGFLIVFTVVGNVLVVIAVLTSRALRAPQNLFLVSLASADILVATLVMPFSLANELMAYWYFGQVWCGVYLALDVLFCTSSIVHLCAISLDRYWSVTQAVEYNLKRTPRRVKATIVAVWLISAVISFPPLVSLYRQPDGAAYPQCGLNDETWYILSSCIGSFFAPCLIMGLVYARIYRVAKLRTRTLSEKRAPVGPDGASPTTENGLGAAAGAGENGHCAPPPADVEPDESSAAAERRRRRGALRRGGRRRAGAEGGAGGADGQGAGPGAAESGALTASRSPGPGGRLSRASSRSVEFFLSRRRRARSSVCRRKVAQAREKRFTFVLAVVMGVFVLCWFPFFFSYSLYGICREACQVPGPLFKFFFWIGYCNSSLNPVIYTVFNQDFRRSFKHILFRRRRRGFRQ
Text: as §1, §2, §3

[1] = target: T3, α1A Human Adrenergic Receptor (Homo sapiens, UniProt P25100); assay: Radioligand binding, [3H]prazosin, cloned human α1A adrenergic receptor; details: for Ki: read-out: pKi alpha-1 1a (converted)
T3 construct: The entire coding region of α1A (1719 bp); expressed in transfected cells
T3 sequence (P25100 1-572): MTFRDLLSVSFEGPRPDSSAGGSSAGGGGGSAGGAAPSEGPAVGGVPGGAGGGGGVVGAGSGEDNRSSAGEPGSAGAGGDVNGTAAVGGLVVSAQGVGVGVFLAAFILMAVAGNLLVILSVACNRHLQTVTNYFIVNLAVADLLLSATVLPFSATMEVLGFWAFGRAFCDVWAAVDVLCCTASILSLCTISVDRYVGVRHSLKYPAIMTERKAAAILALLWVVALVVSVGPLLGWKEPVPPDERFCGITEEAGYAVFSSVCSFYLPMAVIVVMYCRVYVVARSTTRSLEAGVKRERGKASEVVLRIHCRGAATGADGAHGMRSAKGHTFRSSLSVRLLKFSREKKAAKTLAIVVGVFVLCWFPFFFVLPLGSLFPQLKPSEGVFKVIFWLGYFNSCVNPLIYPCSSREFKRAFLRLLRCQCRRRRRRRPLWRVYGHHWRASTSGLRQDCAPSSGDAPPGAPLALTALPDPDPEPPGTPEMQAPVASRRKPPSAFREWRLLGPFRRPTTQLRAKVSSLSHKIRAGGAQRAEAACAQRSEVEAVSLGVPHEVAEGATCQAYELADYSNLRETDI
Procedure, shortened: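 Membranes from LM(tk−) cells transfected with cloned human α1A receptor, prepared in 50 mM Tris-HCl, 1 mM MgCl2, 0.1% ascorbic acid pH 7.5, were incubated with 0.5 nM [3H]prazosin at 37° C for 20 min. Nonspecific binding was defined with 10 μM phentolamine; bound ligand was separated by GF/B filtration.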

[2] = [3H]rauwolscine, LM(tk-) cell line L-NGC-α2B, SEM and n in lines below
[3] = [3H]rauwolscine, LM(tk-) cell line L-α2C, SEM and n in lines below
[4] = [3H]prazosin, cloned human receptor in LM(tk-) cell membranes, SEM and n in lines below

| Compound | Ki (α2B receptor; [2]) | Ki (α2C receptor; [3]) | Ki [1, 4] | other results |
| --- | --- | --- | --- | --- |
| 5-Acetyl-1,4-dihydro-2,6-dimethyl-4-(4-nitrophenyl)-3-[3-(4,4-diphenylpiperidin-1-yl)propoxy]carbonylpyridine hydrochloride hemihydrate [Example 49] | – | – | – | pKi alpha-2 2b (α2B receptor): 6.42; pKi alpha-2 2c (α2C receptor): 6.86; pKi alpha-1 1a [1]: 6.94 |
| COC(=O)C1=C(C)NC(C)=C(C(=O)NCCCN2CCC(c3ccccc3)CC2)C1c1ccc([N+](=O)[O-])cc1 (racemic) [(±)-45, (±)-1,4-Dihydro-3-methoxycarbonyl-2,6-dimethyl-4-(4-nitrophenyl)-5-{N-[3-(4-phenylpiperidin-1-yl)propyl]}carboxamidopyridine hydrochloride hemihydrate] | 0.214 µM | 0.0813 µM | 0.0661 µM | – |
| CNC(=O)C1=C(C)NC(C)=C(C(=O)NCCCN2CCC(c3ccccc3)(c3ccccc3)CC2)C1c1ccc([N+](=O)[O-])cc1 (racemic) [(±)-119, 1,4-Dihydro-2,6-dimethyl-5-(N-Methyl) carboxamido-4-(4-nitrophenyl)-3-{N-[3-(4,4-diphenylpiperidin-1-yl)propyl]}carboxamidopyridine] | – | – | – | pKi alpha-2 2b (α2B receptor): 6.04; pKi alpha-2 2c (α2C receptor): 6.49; pKi alpha-1 1a [1]: 6.21 |
| COC(=O)C1=C(C)NC(C)=C(C(=O)NCCCN2CCC(c3ccccc3)CC2)C1c1ccc([N+](=O)[O-])cc1 (single isomer, unassigned; (+)) [(+)-45, 1,4-Dihydro-3-methoxycarbonyl-2,6-dimethyl-4-(4-nitrophenyl)-5-{N-[3-(4-phenylpiperidin-1-yl)propyl]}carboxamidopyridine hydrochloride hemihydrate] | 0.0912 µM | 0.0224 µM | 0.178 µM | – |
| COC(=O)C1=C(C)NC(C)=C(C(=O)NCCCN2CCC(c3ccccc3)CC2)C1c1ccc([N+](=O)[O-])cc1 (single isomer, unassigned; (-)) [(−)-45, 1,4-Dihydro-3-methoxycarbonyl-2,6-dimethyl-4-(4-nitrophenyl)-5-{N-[3-(4-phenylpiperidin-1-yl)propyl]}carboxamidopyridine hydrochloride hemihydrate] | 0.229 µM | 0.0138 µM | 0.0407 µM | – |
| COC(=O)C1=C(C)NC(C)=C(C(=O)NCCCCN2CCC(c3ccccc3)CC2)C1c1ccc([N+](=O)[O-])cc1 (stereo not drawn) [Example 3, 1,4-Dihydro-3-methoxycarbonyl-2,6-dimethyl-4-(4-nitrophenyl)-5-{N-[4-(4-phenylpiperidin-1-yl)butyl]}carbozamidopyridine hydrochloride hydrate] | 0.0224 µM | 0.0513 µM | 0.145 µM | – |
| COC(=O)C1=C(C)NC(C)=C(C(=O)NCCCN2CCC(c3ccccc3)CC2)C1c1ccc(Cl)c([N+](=O)[O-])c1 (stereo not drawn) [Example 17, 4-(4-Chloro-3-nitrophenyl)-1,4-dihydro-3-methoxycarbonyl-2,6-dimethyl-5-(N-(3-(4-phenylpiperidin-1-yl)propyl)carboxamido)pyridine] | 0.141 µM | 0.0269 µM | 0.126 µM | – |
| COC(=O)C1=C(C)NC(C)=C(C(=O)NCCCN2CCC(c3ccccc3)CC2)C1c1cccc([N+](=O)[O-])c1 (stereo not drawn) [Example 30, 1,4-Dihydro-3-methoxycarbonyl-2,6-dimethyl-4-(3-nitrophenyl)-5-(N-(3-(4-phenylpiperidin-1-yl)propyl)carboxamido)pyridine] | 0.234 µM | 0.049 µM | 0.155 µM | – |
| COC(=O)C1=C(C)NC(C)=C(C(=O)NCCCN2CCC(c3ccccc3)CC2)C1c1ccc(C)cc1 (stereo not drawn) [Example 31, 1,4-Dihydro-3-methoxycarbonyl-2,6-dimethyl-4-(4-methylphenyl)-5-(N-(3-(4-phenylpiperidin-1-yl)propyl)carboxamido)pyridine] | 0.138 µM | 0.0525 µM | 0.112 µM | – |
| CNC(=O)C1=C(C)NC(C)=C(C(=O)NCCCN2CCC(c3ccccc3)(c3ccccc3)CC2)C1c1ccc([N+](=O)[O-])cc1 (stereo not drawn) [Example 38, 1,4-Dihydro-2,6-dimethyl-5-(N-methyl)carboxamido-4-(4-nitrophenyl)-3-{N-[3-(4,4-diphenylpiperidin-1-yl)propyl]}carboxamidopyridine] | – | – | – | pKi alpha-2 2b (α2B receptor): 6.04; pKi alpha-2 2c (α2C receptor): 6.49; pKi alpha-1 1a [1]: 6.21 |
| CC1=C(C(=O)NCCCN2CCC(c3ccccc3)(c3ccccc3)CC2)C(c2ccc([N+](=O)[O-])cc2)C(C(=O)N(C)C)=C(C)N1 (stereo not drawn) [Example 39, 1,4-Dihydro-2,6-dimethyl-3-(N,N-dimethyl) carboxamido-4-(4-nitrophenyl)-5-{N-[3-(4,4-diphenylpiperidin-1-yl)propyl]}carboxamidopyridine] | – | – | – | pKi alpha-2 2b (α2B receptor; [2]): 5.74; pKi alpha-2 2c (α2C receptor; [3]): 6.09; pKi alpha-1 1a [1, 4]: 5.77 |
| CC(=O)C1=C(C)NC(C)=C(C(=O)NCCCN2CCC(c3ccccc3)(c3ccccc3)CC2)C1c1ccc([N+](=O)[O-])cc1 (stereo not drawn) [Example 47, 5-Acetyl-1,4-dihydro-2,6-dimethyl-4-(4-nitrophenyl)-3-{N-[3-(4,4-diphenylpiperidin-1-yl)propyl]}carboxamidopyridine] | – | – | – | pKi alpha-2 2b (α2B receptor; [2]): 6.36; pKi alpha-2 2c (α2C receptor; [3]): 6.43; pKi alpha-1 1a [1, 4]: 6.29 |
| COC(=O)C1=C(C)NC(C)=C(C(=O)OCCCN2CCC(c3ccccc3)CC2)C1c1ccc([N+](=O)[O-])cc1 (stereo not drawn) [Example 48, 1,4-Dihydro-5-methazycarbonyl-2,6-dimethyl-4-(4-nitrophenyl)-3-[3-(4-phenylpiperidin-1-yl)propoxy]}carbonylpyridine hydrochloride hydrate] | 0.813 µM | 0.417 µM | 0.00977 µM | – |
| COC(=O)C1=C(C)NC(C)=C(C(=O)OCCCN2CCCCC2)C1c1ccc([N+](=O)[O-])cc1 (stereo not drawn) [Example 50, 1,4-Dihydro-5-methoxycarbonyl-2,6-dimethyl-4-(4-nitrophenyl)-3-[3-(piperidin-1-yl)propoxy]carbonylpyridine hydrochloride etherate] | 2.75 µM | 0.661 µM | 1.95 µM | – |
| COC(=O)C1=C(C)NC(C)=C(C(=O)NCCCN2CCCCC2)C1c1ccc([N+](=O)[O-])cc1 (stereo not drawn) [Example 51, 1,4-Dihydro-3-methoxycarbonyl-2,6-dimethyl-4-(4-nitrophenyl)-5-{N-[3-(piperidin-1-yl)propyl]}carboxamidopyridine hydrochloride etherate] | 0.513 µM | 0.251 µM | 9.77 µM | – |
